Laboratory results published in patent US20160122406A1, “ANALOGS OF PITUITARY ADENYLATE CYCLASE-ACTIVATING POLYPEPTIDE (PACAP) AND METHODS FOR THEIR USE” (THE ADMINISTRATORS OF THE TULANE EDUCATIONAL FUND, priority 2013, published 2016).
Entries after “also recorded” stand apart in the source; their conditions may differ. Square brackets hold non-standard residues; d marks the D form. * marks the point of attachment. Iac = imidazole-4-acrylic acid, O=C(/C=C/c1c[nH]cn1)*; Acetyl(2-(4-imidazolyl)) = O=C(Cc1c[nH]cn1)*

Test system: Male Sprague-Dawley rats
Test: Arterial blood pressure and heart rate after intravenous injection in anesthetized rats
Type: in vivo
Details: 10 micrograms i.v.; for heart rate before intravenous injection: the 'from' value; for heart rate after intravenous injection: the 'to' value; for change in arterial blood pressure / change in arterial pulse pressure: isoflurane-anesthetized rats
Text: FIG. 9 is a graph showing the changes in arterial blood pressure caused by [Iaa^1]PACAP38, [Iaa^1,D-Ser^2]PACAP38, [Iaa^1,Ala^22]PACAP38, and [Iaa^1,D-Ser^2,Ala^22]PACAP38. Male Sprague-Dawley rats (300-325 g) were anesthetized with 5% isoflurane for induction and then intubated. The rats were then ventilated (Hallowell EMC) with 100% O2 and 1-2% isoflurane. A PE-50 cannula was then placed in the femoral artery and connected to a pressure transducer. The arterial pressure signal was sent to an electronic chart recorder (BioPac). Heart rate was electronically derived from the arterial pressure signal. A similar PE-50 cannula was also placed in the femoral vein to allow for intravenous injection of the test peptides. Ten micrograms of the test peptides were injected intravenously in 100 μl of 0.9% NaCl in a random order and the cannula was immediately flushed with 100 μl of 0.9% NaCl. Changes in blood pressure and heart rate were calculated from the electronic record. […] Intravenous injection of [Iaa1]PACAP38 or [Iaa1,Ala22]PACAP38 also produced an increase in the heart rate from 378 bpm to 425 bpm or from 415 bpm to 440 bpm, respectively.
FIG. 10 is a graph showing the changes in arterial blood pressure caused by [Iac^1]PACAP38, [Iac^1,Ala^22]PACAP38, [Iac^1,D-Ser^2,Ala^22]PACAP38, and [Iaa^1,Ala^16,17,D-Lys^38]PACAP38. Male Sprague-Dawley rats (300-325 g) were anesthetized with 5% isoflurane for induction and then intubated. The rats were then ventilated (Hallowell EMC) with 100% O2 and 1-2% isoflurane. A PE-50 cannula was then placed in the femoral artery and connected to a pressure transducer. The arterial pressure signal was sent to an electronic chart recorder (BioPac). Heart rate was electronically derived from the arterial pressure signal. A similar PE-50 cannula was also placed in the femoral vein to allow for intravenous injection of the test peptides. Ten micrograms of the test peptides were injected intravenously in 100 μl of 0.9% NaCl in a random order and the cannula was immediately flushed with 100 μl of 0.9% NaCl. Changes in blood pressure and heart rate were calculated from the electronic record. Intravenous injection of [Iac^1,Ala^22]PACAP38 or [Iac^1,D-Ser^2,Ala^22]PACAP38 produced an increase in the heart rate from 416 bpm to 435 bpm or from 420 bpm to 441 bpm, respectively.
PACAP38 is a directly-acting arterial vasodilator and an indirectly-acting arterial vasoconstrictor. The rapid vasodilator response to intravenous administration of PACAP38 is due to stimulation of PAC1, VPAC1 and VPAC2 receptors in the blood vessels, while the slightly delayed vasoconstrictor response is mainly due to stimulation of PAC1 receptors in the adrenal medulla and the subsequent release of adrenal catecholamines. […] The critical parameter for picking a PACAP38 analog for treating a specific disease is not potency but therapeutic index.

| Substance | heart rate before intravenous injection | heart rate after intravenous injection | change in arterial blood pressure | pattern of the arterial blood pressure response (compared with other peptides) | change in the heart rate (in words) | change in arterial pulse pressure | change in arterial blood pressure (D-Lys38]PACAP38) | change in arterial pulse pressure (D-Lys38]PACAP38) | duration of the arterial blood pressure response (compared with [Iaa1]PACAP38) |
| --- | --- | --- | --- | --- | --- | --- | --- | --- | --- |
| Iac D-Ser Asp Gly Ile Phe Thr Asp Ser Tyr Ser Arg Tyr Arg Lys Gln Met Ala Val Lys Lys Ala Leu Ala Ala Val Leu Gly Lys Arg Tyr Lys Gln Arg Val Lys Asn Lys-NH2 (Iac-[dS]DGIFTDSYSRYRKQMAVKKALAAVLGKRYKQRVKNK-NH2) [[Iac^1,D-Ser^2,Ala^22]PACAP38] | 420 bpm | 441 bpm | – | – | – | – | – | – | – |
| Iaa Ser Asp Gly Ile Phe Thr Asp Ser Tyr Ser Arg Tyr Arg Lys Gln Met Ala Val Lys Lys Ala Leu Ala Ala Val Leu Gly Lys Arg Tyr Lys Gln Arg Val Lys Asn Lys-NH2 ({Acetyl(2-(4-imidazolyl))}-SDGIFTDSYSRYRKQMAVKKALAAVLGKRYKQRVKNK-NH2; SMILES CC[C@H](C)[C@H](NC(=O)CNC(=O)[C@H](CC(=O)O)NC(=O)[C@H](CO)NC(=O)Cc1c[nH]cn1)C(=O)N[C@@H](Cc1ccccc1)C(=O)N[C@H](C(=O)N[C@@H](CC(=O)O)C(=O)N[C@@H](CO)C(=O)N[C@@H](Cc1ccc(O)cc1)C(=O)N[C@@H](CO)C(=O)N[C@@H](CCCNC(=N)N)C(=O)N[C@@H](Cc1ccc(O)cc1)C(=O)N[C@@H](CCCNC(=N)N)C(=O)N[C@@H](CCCCN)C(=O)N[C@@H](CCC(N)=O)C(=O)N[C@@H](CCSC)C(=O)N[C@@H](C)C(=O)N[C@H](C(=O)N[C@@H](CCCCN)C(=O)N[C@@H](CCCCN)C(=O)N[C@@H](C)C(=O)N[C@@H](CC(C)C)C(=O)N[C@@H](C)C(=O)N[C@@H](C)C(=O)N[C@H](C(=O)N[C@@H](CC(C)C)C(=O)NCC(=O)N[C@@H](CCCCN)C(=O)N[C@@H](CCCNC(=N)N)C(=O)N[C@@H](Cc1ccc(O)cc1)C(=O)N[C@@H](CCCCN)C(=O)N[C@@H](CCC(N)=O)C(=O)N[C@@H](CCCNC(=N)N)C(=O)N[C@H](C(=O)N[C@@H](CCCCN)C(=O)N[C@@H](CC(N)=O)C(=O)N[C@@H](CCCCN)C(N)=O)C(C)C)C(C)C)C(C)C)[C@@H](C)O) [[Iaa^1,Ala^22]PACAP38] | 415 bpm | 440 bpm | large decrease | – | – | – | – | – | – |
| Iac Ser Asp Gly Ile Phe Thr Asp Ser Tyr Ser Arg Tyr Arg Lys Gln Met Ala Val Lys Lys Ala Leu Ala Ala Val Leu Gly Lys Arg Tyr Lys Gln Arg Val Lys Asn Lys-NH2 (Iac-SDGIFTDSYSRYRKQMAVKKALAAVLGKRYKQRVKNK-NH2) [[Iac^1,Ala^22]PACAP38] | 416 bpm | 435 bpm | – | – | – | – | – | – | – |
| Iaa D-Ser Asp Gly Ile Phe Thr Asp Ser Tyr Ser Arg Tyr Arg Lys Gln Met Ala Val Lys Lys Ala Leu Ala Ala Val Leu Gly Lys Arg Tyr Lys Gln Arg Val Lys Asn Lys-NH2 ({Acetyl(2-(4-imidazolyl))}-[dS]DGIFTDSYSRYRKQMAVKKALAAVLGKRYKQRVKNK-NH2; SMILES CC[C@H](C)[C@H](NC(=O)CNC(=O)[C@H](CC(=O)O)NC(=O)[C@@H](CO)NC(=O)Cc1c[nH]cn1)C(=O)N[C@@H](Cc1ccccc1)C(=O)N[C@H](C(=O)N[C@@H](CC(=O)O)C(=O)N[C@@H](CO)C(=O)N[C@@H](Cc1ccc(O)cc1)C(=O)N[C@@H](CO)C(=O)N[C@@H](CCCNC(=N)N)C(=O)N[C@@H](Cc1ccc(O)cc1)C(=O)N[C@@H](CCCNC(=N)N)C(=O)N[C@@H](CCCCN)C(=O)N[C@@H](CCC(N)=O)C(=O)N[C@@H](CCSC)C(=O)N[C@@H](C)C(=O)N[C@H](C(=O)N[C@@H](CCCCN)C(=O)N[C@@H](CCCCN)C(=O)N[C@@H](C)C(=O)N[C@@H](CC(C)C)C(=O)N[C@@H](C)C(=O)N[C@@H](C)C(=O)N[C@H](C(=O)N[C@@H](CC(C)C)C(=O)NCC(=O)N[C@@H](CCCCN)C(=O)N[C@@H](CCCNC(=N)N)C(=O)N[C@@H](Cc1ccc(O)cc1)C(=O)N[C@@H](CCCCN)C(=O)N[C@@H](CCC(N)=O)C(=O)N[C@@H](CCCNC(=N)N)C(=O)N[C@H](C(=O)N[C@@H](CCCCN)C(=O)N[C@@H](CC(N)=O)C(=O)N[C@@H](CCCCN)C(N)=O)C(C)C)C(C)C)C(C)C)[C@@H](C)O) [[Iaa^1,D-Ser^2,Ala^22]PACAP38] | 410 bpm | 457 bpm | slight increase; also recorded: slightly increased | expected physiological signature of a highly selective PAC1 receptor agonist | – | – | – | – | – |
| Iaa Ser Asp Gly Ile Phe Thr Asp Ser Tyr Ser Arg Tyr Arg Lys Ala Ala Ala Val Lys Lys Tyr Leu Ala Ala Val Leu Gly Lys Arg Tyr Lys Gln Arg Val Lys Asn D-Lys-NH2 ({Acetyl(2-(4-imidazolyl))}-SDGIFTDSYSRYRKAAAVKKYLAAVLGKRYKQRVKN[dK]-NH2; SMILES CC[C@H](C)[C@H](NC(=O)CNC(=O)[C@H](CC(=O)O)NC(=O)[C@H](CO)NC(=O)Cc1c[nH]cn1)C(=O)N[C@@H](Cc1ccccc1)C(=O)N[C@H](C(=O)N[C@@H](CC(=O)O)C(=O)N[C@@H](CO)C(=O)N[C@@H](Cc1ccc(O)cc1)C(=O)N[C@@H](CO)C(=O)N[C@@H](CCCNC(=N)N)C(=O)N[C@@H](Cc1ccc(O)cc1)C(=O)N[C@@H](CCCNC(=N)N)C(=O)N[C@@H](CCCCN)C(=O)N[C@@H](C)C(=O)N[C@@H](C)C(=O)N[C@@H](C)C(=O)N[C@H](C(=O)N[C@@H](CCCCN)C(=O)N[C@@H](CCCCN)C(=O)N[C@@H](Cc1ccc(O)cc1)C(=O)N[C@@H](CC(C)C)C(=O)N[C@@H](C)C(=O)N[C@@H](C)C(=O)N[C@H](C(=O)N[C@@H](CC(C)C)C(=O)NCC(=O)N[C@@H](CCCCN)C(=O)N[C@@H](CCCNC(=N)N)C(=O)N[C@@H](Cc1ccc(O)cc1)C(=O)N[C@@H](CCCCN)C(=O)N[C@@H](CCC(N)=O)C(=O)N[C@@H](CCCNC(=N)N)C(=O)N[C@H](C(=O)N[C@@H](CCCCN)C(=O)N[C@@H](CC(N)=O)C(=O)N[C@H](CCCCN)C(N)=O)C(C)C)C(C)C)C(C)C)[C@@H](C)O) [[Iaa^1,Ala^16,17,D-Lys^38]PACAP38] | – | – | large and prolonged decrease | – | large decrease | large and prolonged decrease | large decrease | large decrease | much longer |
